# “And” between values parts separate entries of the source, which are not always exact repeats. Equal values may be shown once.
# What was measured:
# Assay in all cases: ≥ marks a high value that may be exact or a test limit, other limits are often not marked, values filed in µg/mL are converted to µM
# Aspergillus fumigatus = test system: Aspergillus fumigatus
# [1] = test system: Escherichia coli ATCC 25922
# [2] = test system: Staphylococcus aureus ATCC 2592
# Shigella dysenteriae = test system: Shigella dysenteriae
# Bacillus cereus = test system: Bacillus cereus
# Pseudomonas aeruginosa = test system: Pseudomonas aeruginosa
# [3] = test system: Candida albicans ATCC 2002
# [4] = test system: Bacillus subtilis ATCC 6633
# Escherichia coli JW0013 = test system: Escherichia coli JW0013
# [5] = test system: Micrococcus luteus ATCC 9341
# [6] = test system: Pseudomonas aeruginosa PAO1
# [7] = test system: Pseudomonas aeruginosa CMCCB 10104
# [8] = test system: Staphylococcus aureus ATCC 25923
# Escherichia coli = test system: Escherichia coli
# [9] = test system: Staphylococcus aureus ATCC 43300
# [10] = test system: Pseudomonas aeruginosa ATCC 27853
# Escherichia coli ML-35p = test system: Escherichia coli ML-35p
# Bacillus subtilis = test system: Bacillus subtilis
# Staphylococcus aureus = test system: Staphylococcus aureus
# Candida albicans = test system: Candida albicans
# Klebsiella pneumoniae = test system: Klebsiella pneumoniae
# [11] = test system: Escherichia coli DH5alpha
# Salmonella typhimurium = test system: Salmonella typhimurium
smiles,measurement,setting,value
CC(C)[C@H](NC(=O)[C@@H](N)CCCCN)C(=O)N[C@@H](C)C(=O)N[C@@H](CCCCN)C(=O)N[C@@H](CCC(N)=O)C(=O)N[C@@H](CCC(=O)O)C(=O)N[C@@H](CCCCN)C(=O)N[C@@H](CCCCN)C(=O)N[C@@H](CCCCN)C(=O)N[C@@H](CCCCN)C(=O)N[C@@H](CCCCN)C(=O)N[C@H](C(=O)NCC(=O)N[C@@H](CCCN=C(N)N)C(=O)N[C@@H](C)C(=O)N[C@@H](CCCCN)C(=O)N[C@@H](CCCN=C(N)N)C(=O)N[C@@H](CCCN=C(N)N)C(=O)O)[C@@H](C)O [KVAKQEKKKKKTGRAKRR],MIC,Aspergillus fumigatus,18 µM
CC[C@H](C)[C@H](NC(=O)CN)C(=O)N[C@@H](CC(C)C)C(=O)N[C@@H](CC(=O)O)C(=O)N1CCC[C@H]1C(=O)N[C@H](C(=O)N[C@@H](CCCCN)C(=O)N[C@@H](C)C(=O)N[C@@H](Cc1ccccc1)C(=O)N[C@@H](C)C(=O)N[C@@H](CCCCN)C(=O)N[C@@H](C)C(=O)N[C@@H](C)C(=O)NCC(N)=O)[C@@H](C)CC [GILDPIKAFAKAAG],MIC,[1],16 µM
same,MIC,[2],4.01 µM
same,MIC,Shigella dysenteriae,4.01 µM
same,MIC,Bacillus cereus,16 µM
same,MIC,Pseudomonas aeruginosa,8.02 µM
same,MIC,[3],≥ 32.1 µM
same,MIC,[4],8.02 µM
CC[C@H](C)[C@H](NC(=O)[C@H](CCCN=C(N)N)NC(=O)[C@H](CCCN=C(N)N)NC(=O)[C@@H]1CCCN1C(=O)[C@@H]1CCCN1C(=O)[C@H](CCCN=C(N)N)NC(=O)[C@@H]1CCCN1C(=O)[C@H](CCCN=C(N)N)NC(=O)[C@@H]1CCCN1C(=O)[C@H](CC(C)C)NC(=O)[C@H](Cc1cnc[nH]1)NC(=O)[C@@H]1CCCN1C(=O)[C@@H]1CCCN1C(=O)[C@H](CCCCN)NC(=O)[C@H](CC(=O)O)NC(=O)[C@@H](N)C(C)C)C(=O)N[C@@H](Cc1ccc(O)cc1)C(=O)N[C@@H](CC(N)=O)C(=O)N[C@@H](CCCN=C(N)N)C(N)=O [VDKPPHLPRPRPPRRIYNR],MIC,Escherichia coli JW0013,2.03 µM
CC(C)C[C@H](N)C(=O)N1CCC[C@H]1C(=O)N[C@@H](Cc1c[nH]c2ccccc12)C(=O)N[C@@H](CCCCN)C(=O)N[C@@H](Cc1c[nH]c2ccccc12)C(=O)N1CCC[C@H]1C(=O)N[C@@H](Cc1c[nH]c2ccccc12)C(=O)N[C@@H](Cc1c[nH]c2ccccc12)C(=O)N1CCC[C@H]1C(=O)N[C@@H](Cc1c[nH]c2ccccc12)C(=O)N[C@@H](CCCN=C(N)N)C(=O)N[C@@H](CCCN=C(N)N)C(N)=O [LPWKWPWWPWRR],MIC,[5],0.2 µM
CC[C@H](C)[C@H](N)C(=O)N[C@@H](CC(C)C)C(=O)N1CCC[C@H]1C(=O)N[C@@H](Cc1c[nH]c2ccccc12)C(=O)N[C@@H](CCCCN)C(=O)N[C@@H](Cc1c[nH]c2ccccc12)C(=O)N1CCC[C@H]1C(=O)N[C@@H](Cc1c[nH]c2ccccc12)C(=O)N[C@@H](Cc1c[nH]c2ccccc12)C(=O)N1CCC[C@H]1C(=O)N[C@@H](Cc1c[nH]c2ccccc12)C(=O)N[C@@H](CCCN=C(N)N)C(=O)N[C@@H](C)C(N)=O [ILPWKWPWWPWRA],MIC,[5],0.8 µM
CC[C@H](C)[C@H](NC(=O)[C@@H](NC(=O)[C@@H](NC(=O)[C@H](CCCN=C(N)N)NC(=O)[C@H](Cc1cnc[nH]1)NC(=O)[C@H](Cc1ccccc1)NC(=O)[C@H](Cc1cnc[nH]1)NC(=O)CNC(=O)[C@H](CCCCN)NC(=O)[C@H](CO)NC(=O)[C@H](CCCCN)NC(=O)[C@H](CC(=O)O)NC(=O)[C@H](Cc1cnc[nH]1)NC(=O)[C@H](CC(=O)O)NC(=O)[C@H](CCCN=C(N)N)NC(=O)CNC(=O)[C@H](CCC(=O)O)NC(=O)[C@H](CCC(N)=O)NC(=O)[C@H](CCCCN)NC(=O)[C@H](CC(N)=O)NC(=O)[C@@H](N)Cc1cnc[nH]1)C(C)C)C(C)C)C(=O)N[C@@H](Cc1cnc[nH]1)C(=O)N[C@@H](Cc1cnc[nH]1)C(=O)N[C@@H](CCCCN)C(=O)NCC(=O)NCC(=O)N[C@@H](CCCCN)C(=O)N[C@@H](C)C(=O)N[C@@H](Cc1cnc[nH]1)C(=O)O [HNKQEGRDHDKSKGHFHRVVIHHKGGKAH],MIC,[6],3.81 µM
same,MIC,[1],1.67 µM
same,MIC,[7],2.17 µM
same,MIC,[8],> 30 µM
same,MIC,Escherichia coli,1.05 µM and 1.17 µM
same,MIC,[9],> 30 µM
same,MIC,[10],1.57 µM
same,MIC,Escherichia coli ML-35p,2.2 µM
CC[C@H](C)[C@H](NC(=O)[C@H](CCCN=C(N)N)NC(=O)[C@H](CCCN=C(N)N)NC(=O)[C@@H]1CCCN1C(=O)[C@@H]1CCCN1C(=O)[C@H](CCCN=C(N)N)NC(=O)[C@@H](NC(=O)[C@H](CCCN=C(N)N)NC(=O)[C@@H]1CCCN1C(=O)[C@H](CC(C)C)NC(=O)[C@H](Cc1ccc(O)cc1)NC(=O)[C@@H]1CCCN1C(=O)[C@@H]1CCCN1C(=O)[C@H](CCCCN)NC(=O)[C@H](CC(=O)O)NC(=O)[C@@H](N)C(C)C)[C@@H](C)CC)C(=O)N[C@@H](Cc1ccc(O)cc1)C(=O)N[C@@H](CC(N)=O)C(=O)N[C@@H](CCCN=C(N)N)C(N)=O [VDKPPYLPRIRPPRRIYNR],MIC,Escherichia coli JW0013,1.37 µM
CC[C@H](C)[C@H](NC(=O)CNC(=O)[C@H](CO)NC(=O)[C@H](CC(C)C)NC(=O)[C@H](CC(C)C)NC(=O)CN)C(=O)N[C@@H](CC(C)C)C(=O)NCC(=O)N[C@@H](C)C(=O)NCC(=O)N[C@@H](CCCCN)C(=O)N[C@@H](Cc1cnc[nH]1)C(=O)N[C@H](C(=O)N[C@H](C(=O)N[C@H]1CSSC[C@@H](C(=O)O)NC(=O)[C@H](CC(C)C)NC(=O)CNC(=O)[C@H](CO)NC(=O)[C@H](CC(C)C)NC(=O)CNC1=O)C(C)C)[C@@H](C)CC [GLLSGILGAGKHIVCGLSGLC],MIC,[1],2.54 µM
same,MIC,Bacillus subtilis,4.76 µM
same,MIC,[2],1.27 µM
same,MIC,Shigella dysenteriae,1.27 µM
same,MIC,Escherichia coli,> 50.8 µM
same,MIC,Staphylococcus aureus,38.1 µM
same,MIC,[3],3.81 µM
same,MIC,Candida albicans,4.76 µM
CC[C@H](C)[C@H](NC(=O)CNC(=O)[C@H](CCSC)NC(=O)CNC(=O)[C@H](C)NC(=O)[C@H](CO)NC(=O)[C@H](CCCCN)NC(=O)[C@H](C)NC(=O)[C@H](CC(C)C)NC(=O)[C@H](CC(=O)O)NC(=O)[C@@H](NC(=O)[C@H](C)NC(=O)[C@@H](NC(=O)[C@@H](NC(=O)[C@H](CCCCN)NC(=O)[C@@H](NC(=O)[C@H](CCCCN)NC(=O)[C@H](CC(=O)O)NC(=O)[C@H](CCCN=C(N)N)NC(=O)[C@@H](NC(=O)[C@@H](N)CO)[C@@H](C)CC)[C@@H](C)CC)[C@@H](C)O)[C@@H](C)CC)[C@@H](C)CC)C(=O)N[C@@H](CC(C)C)C(=O)N[C@@H](CCCCN)C(=O)N[C@H](C(=O)N[C@@H](CC(C)C)C(=O)N[C@H](C(=O)N[C@H]1CSSC[C@@H](C(=O)O)NC(=O)[C@H](CO)NC(=O)[C@H](CCCCN)NC(=O)[C@H](CC(=O)O)NC(=O)[C@H](CC(C)C)NC(=O)[C@H](CCCCN)NC1=O)[C@@H](C)CC)[C@@H](C)O [SIRDKIKTIAIDLAKSAGMGILKTLICKLDKSC],MIC,Bacillus subtilis,5.28 µM
same,MIC,[8],4.65 µM
same,MIC,[10],> 28.2 µM
same,MIC,Escherichia coli ML-35p,7.05 µM
same,MIC,[3],4.23 µM
CC[C@H](C)[C@H](NC(=O)[C@H](CCCN=C(N)N)NC(=O)[C@H](CCCN=C(N)N)NC(=O)[C@@H]1CCCN1C(=O)[C@@H]1CCCN1C(=O)[C@H](CCCN=C(N)N)NC(=O)[C@@H]1CCCN1C(=O)[C@H](CCCN=C(N)N)NC(=O)[C@@H]1CCCN1C(=O)[C@H](CC(C)C)NC(=O)[C@H](Cc1ccc(O)cc1)NC(=O)[C@@H]1CCCN1C(=O)[C@@H]1CCCN1C(=O)[C@H](CCCCN)NC(=O)[C@H](CC(=O)O)NC(=O)[C@@H](N)Cc1c[nH]c2ccccc12)C(=O)N[C@@H](Cc1ccc(O)cc1)C(=O)N[C@@H](CC(N)=O)C(=O)N[C@@H](CCCN=C(N)N)C(N)=O [WDKPPYLPRPRPPRRIYNR],MIC,Escherichia coli JW0013,1.94 µM
CC[C@H](C)[C@H](N)C(=O)N[C@@H](CC(C)C)C(=O)N1CCC[C@H]1C(=O)N[C@@H](Cc1c[nH]c2ccccc12)C(=O)N[C@@H](CCCCN)C(=O)N[C@@H](Cc1c[nH]c2ccccc12)C(=O)N[C@@H](C)C(=O)N[C@@H](Cc1c[nH]c2ccccc12)C(=O)N[C@@H](Cc1c[nH]c2ccccc12)C(=O)N1CCC[C@H]1C(=O)N[C@@H](Cc1c[nH]c2ccccc12)C(=O)N[C@@H](CCCN=C(N)N)C(=O)N[C@@H](CCCN=C(N)N)C(N)=O [ILPWKWAWWPWRR],MIC,[5],0.4 µM
same,MIC,Klebsiella pneumoniae,15 µM
same,MIC,[11],10 µM
same,MIC,Salmonella typhimurium,25 µM
same,MIC,Pseudomonas aeruginosa,50 µM

# From DBAASP
